Laboratory results published in US20240390515A1, “MULTIDOSE OPHTHALMIC COMPOSITIONS” (Oculis Operations Sàrl, priority 2022, published 2024).

What was measured:
[1] = cited from earlier work
[2] = tested on: Pseudomonas aeruginosa, Staphylococcus aureus, Candida albicans, Aspergillus brasiliensis, Escherichia coli; experiment: Antimicrobial Efficacy Test (AET) according to USP-NF monograph <51>; format: cell-based; conditions: dexamethasone eye drops, pH 5.0, USP-NF AET methodology
Protocol: For assessing the antimicrobial preservative agents, an Antimicrobial Efficacy Test (AET) is performed according to both USP-NF and EP standards • USP-NF: “American Pharmacopoeia” monograph <51> • EP: “European Pharmacopoeia” monograph […]
Those AETs consist in challenging the drug formulation containing an antimicrobial preservative agent at a certain concentration with specific microbial strains. The results are provided in microbial reduction expressed in logarithmic units. The acceptance criteria are specific of each standard (either US or EU) according to the table below. For being declared as passing the test, all the criteria must be achieved over the 28 days period. If at least one criterion is missed, then the whole test is declared failed.
AET acceptance criteria (microbial burden reduction in Log units)
Based on current knowledge those three microbial challenge tests (AETs), also known in the past as preservative efficacy tests (PET), are known to be more or less difficult to pass. EP/A test is known to be the most difficult one to pass. EB/B is less difficult than EB/A. USP-NF test is usually less difficult or sometimes equivalent to EP/B.

Compound: CCCCOC(=O)c1ccc(O)cc1 [BPB, butyl paraben]
- Water solubility (at 20° C.) [1]: Low (0.25%)
- Temperature Stability ([1]; in words): Yes

Compound: C/C=C/C=C/C(=O)[O-].[K+] [KS, Potassium sorbate]
- minimum effective dose of potassium sorbate used as an antimicrobial agent [2]: 0.235 % w/v
- Water solubility (at 20° C.) [1]: Good (>50%)
- Temperature Stability ([1]; in words): Medium

Compound: C/C=C/C=C/C(=O)O [SA, (2E,4E)-hexa-2,4-dienoic acid]
- Water solubility (at 20° C.) [1]: Low (0.15%)
- Temperature Stability ([1]; in words): Low
- solubility in water ([1]; in words): slightly soluble in water
- Log P(octanol/water) ([1]; octanol/water): 1.3
